From ChEMBL document CHEMBL3872249, “Computer design, synthesis, and bioactivity analyses of drugs like fingolimod used in the treatment of multiple sclerosis” (Bioorg Med Chem, 2017)

Tests used:
Format in all cases: functional
SK-N-SH [1] = assay: Effect on IL2 mRNA expression in human SK-N-SH cells at EC10 by qPCR method relative to beta-actin
SK-N-SH [2] = assay: Effect on CXCL11 mRNA expression in human SK-N-SH cells at EC10 by qPCR method relative to beta-actin
SH-SY5Y [3] = assay: Effect on CXCL11 mRNA expression in human SH-SY5Y cells at EC10 by qPCR method relative to beta-actin
SK-N-SH [4] = assay: Effect on C1S mRNA expression in human SK-N-SH cells at EC10 by qPCR method relative to beta-actin
SH-SY5Y [5] = assay: Effect on LTA mRNA expression in human SH-SY5Y cells at EC10 by qPCR method relative to beta-actin
U-118-MG [6] = assay: Effect on VEGFA mRNA expression in human U118MG cells at EC10 by qPCR method relative to beta-actin
U-118-MG [7] = assay: Effect on GRM2 mRNA expression in human U118MG cells at EC10 by qPCR method relative to beta-actin
SK-N-SH [8] = assay: Effect on IL18 mRNA expression in human SK-N-SH cells at EC10 by qPCR method relative to beta-actin
SK-N-SH [9] = assay: Effect on MAPK1 mRNA expression in human SK-N-SH cells at EC10 by qPCR method relative to beta-actin
SK-N-SH [10] = assay: Effect on LTA mRNA expression in human SK-N-SH cells at EC10 by qPCR method relative to beta-actin
SH-SY5Y [11] = assay: Effect on MAPK1 mRNA expression in human SH-SY5Y cells at EC10 by qPCR method relative to beta-actin
SK-N-SH [12] = assay: Effect on CRHR1 mRNA expression in human SK-N-SH cells at EC10 by qPCR method relative to beta-actin
SH-SY5Y [13] = assay: Effect on EDN1 mRNA expression in human SH-SY5Y cells at EC10 by qPCR method relative to beta-actin
U-118-MG [14] = assay: Effect on MAL mRNA expression in human U118MG cells at EC10 by qPCR method relative to beta-actin
SK-N-SH [15] = assay: Effect on AGT mRNA expression in human SK-N-SH cells at EC10 by qPCR method relative to beta-actin
U-118-MG [16] = assay: Effect on ADRB2 mRNA expression in human U118MG cells at EC10 by qPCR method relative to beta-actin
SH-SY5Y [17] = assay: Effect on CYP19A1 mRNA expression in human SH-SY5Y cells at EC10 by qPCR method relative to beta-actin
SH-SY5Y [18] = assay: Effect on APP mRNA expression in human SH-SY5Y cells at EC10 by qPCR method relative to beta-actin
U-118-MG [19] = assay: Effect on HIF1A mRNA expression in human U118MG cells at EC10 by qPCR method relative to beta-actin
SK-N-SH [20] = assay: Effect on GRM7 mRNA expression in human SK-N-SH cells at EC10 by qPCR method relative to beta-actin
SK-N-SH [21] = assay: Effect on APP mRNA expression in human SK-N-SH cells at EC10 by qPCR method relative to beta-actin
SH-SY5Y [22] = assay: Effect on PTGDR mRNA expression in human SH-SY5Y cells at EC10 by qPCR method relative to beta-actin
U-118-MG [23] = assay: Effect on RAF1 mRNA expression in human U118MG cells at EC10 by qPCR method relative to beta-actin
SK-N-SH [24] = assay: Effect on RAF1 mRNA expression in human SK-N-SH cells at EC10 by qPCR method relative to beta-actin
SH-SY5Y [25] = assay: Effect on HIF1A mRNA expression in human SH-SY5Y cells at EC10 by qPCR method relative to beta-actin
SK-N-SH [26] = assay: Effect on MAL mRNA expression in human SK-N-SH cells at EC10 by qPCR method relative to beta-actin
SH-SY5Y [27] = assay: Effect on HDAC1 mRNA expression in human SH-SY5Y cells at EC10 by qPCR method relative to beta-actin
SH-SY5Y [28] = assay: Effect on RAF1 mRNA expression in human SH-SY5Y cells at EC10 by qPCR method relative to beta-actin
SK-N-SH [29] = assay: Effect on HDAC1 mRNA expression in human SK-N-SH cells at EC10 by qPCR method relative to beta-actin
SH-SY5Y [30] = assay: Effect on FASLG mRNA expression in human SH-SY5Y cells at EC10 by qPCR method relative to beta-actin
U-118-MG [31] = assay: Effect on OPRD1 mRNA expression in human U118MG cells at EC10 by qPCR method relative to beta-actin
SH-SY5Y [32] = assay: Effect on ITGB2 mRNA expression in human SH-SY5Y cells at EC10 by qPCR method relative to beta-actin
U-118-MG [33] = assay: Effect on TNFRSF1B mRNA expression in human U118MG cells at EC10 by qPCR method relative to beta-actin
SH-SY5Y [34] = assay: Effect on TNFRSF1B mRNA expression in human SH-SY5Y cells at EC10 by qPCR method relative to beta-actin
U-118-MG [35] = assay: Effect on CCL5 mRNA expression in human U118MG cells at EC10 by qPCR method relative to beta-actin
U-118-MG [36] = assay: Effect on S1PR3 mRNA expression in human U118MG cells at EC10 by qPCR method relative to beta-actin
SK-N-SH [37] = assay: Effect on SOD1 mRNA expression in human SK-N-SH cells at EC10 by qPCR method relative to beta-actin
U-118-MG [38] = assay: Effect on GRM4 mRNA expression in human U118MG cells at EC10 by qPCR method relative to beta-actin
U-118-MG [39] = assay: Effect on TGFB1 mRNA expression in human U118MG cells at EC10 by qPCR method relative to beta-actin
U-118-MG [40] = assay: Effect on TGFB2 mRNA expression in human U118MG cells at EC10 by qPCR method relative to beta-actin
SK-N-SH [41] = assay: Effect on CXCL9 mRNA expression in human SK-N-SH cells at EC10 by qPCR method relative to beta-actin
SH-SY5Y [42] = assay: Effect on HLA-DRB1 mRNA expression in human SH-SY5Y cells at EC10 by qPCR method relative to beta-actin
SK-N-SH [43] = assay: Effect on HLA-DRB1 mRNA expression in human SK-N-SH cells at EC10 by qPCR method relative to beta-actin
SH-SY5Y [44] = assay: Effect on SOD1 mRNA expression in human SH-SY5Y cells at EC10 by qPCR method relative to beta-actin

## CCCCCCCCn1nnnc1CCC(N)(CO)CO.Cl
SK-N-SH [1]
  fold change (FC): -4.9224
SK-N-SH [2]
  fold change (FC): -3.5538
SH-SY5Y [3]
  fold change (FC): -5.0428
SK-N-SH [4]
  fold change (FC): -5.1582
SH-SY5Y [5]
  fold change (FC): -2.54
U-118-MG [6]
  fold change (FC): -4.4402
U-118-MG [7]
  fold change (FC): -3.2823
SK-N-SH [8]
  fold change (FC): -5.1137
SK-N-SH [9]
  fold change (FC): -10.5515
SK-N-SH [10]
  fold change (FC): -5.1941
SH-SY5Y [11]
  fold change (FC): -2.8875
SK-N-SH [12]
  fold change (FC): 4.6448
SH-SY5Y [13]
  fold change (FC): 7.826

## CCCCCCCCc1ccc(CCC(N)(CO)CO)cc1 [FINGOLIMOD]
U-118-MG [14]
  fold change (FC): -3.8671
SK-N-SH [15]
  fold change (FC): 5.63
U-118-MG [16]
  fold change (FC): -4.9171
SH-SY5Y [17]
  fold change (FC): -5.8869
SH-SY5Y [18]
  fold change (FC): -10.004
U-118-MG [19]
  fold change (FC): -3.2716
SK-N-SH [20]
  fold change (FC): -6.2306
SK-N-SH [21]
  fold change (FC): -8.0801
SH-SY5Y [22]
  fold change (FC): -4.9331
U-118-MG [23]
  fold change (FC): -3.8172
SK-N-SH [24]
  fold change (FC): -5.2666
SH-SY5Y [25]
  fold change (FC): -8.3109
SK-N-SH [26]
  fold change (FC): -4.2778
SH-SY5Y [27]
  fold change (FC): -15.9446
SH-SY5Y [28]
  fold change (FC): -5.0718
SK-N-SH [29]
  fold change (FC): -6.6778
SH-SY5Y [30]
  fold change (FC): -3.0525
U-118-MG [31]
  fold change (FC): 3.818
SH-SY5Y [32]
  fold change (FC): -3.9655

## CCCCCCCCn1nnnc1-c1ccc(C(O)CC(N)(CO)CO)cc1.Cl (centres undefined)
U-118-MG [33]
  fold change (FC): -3.1207
SH-SY5Y [34]
  fold change (FC): -2.9117
U-118-MG [35]
  fold change (FC): -5.3124
U-118-MG [36]
  fold change (FC): -4.6278
SK-N-SH [37]
  fold change (FC): -3.3929
U-118-MG [38]
  fold change (FC): -5.0773
U-118-MG [39]
  fold change (FC): -5.1404
U-118-MG [40]
  fold change (FC): -5.915
SK-N-SH [41]
  fold change (FC): -4.8484
SH-SY5Y [42]
  fold change (FC): -2.5613
SK-N-SH [43]
  fold change (FC): -4.1339
SH-SY5Y [44]
  fold change (FC): -3.4032
